# Data as given in patent publication US20250326772A1, “MRGPRX2 ANTAGONISTS, PHARMACEUTICAL COMPOSITION INCLUDING MRGPRX2 ANTAGONIST, AND METHOD OF TREATING MRGPRX2-MEDIATED DISEASE OR DISORDER” (KYORIN PHARMACEUTICAL CO., LTD., priority 2024, published 2025).
# pIC50: −log10 of the molar value.
# Biological target: T1, MRGPRX2 (Homo sapiens, UniProt Q96LB1)
# T1 sequence (Q96LB1 1-330): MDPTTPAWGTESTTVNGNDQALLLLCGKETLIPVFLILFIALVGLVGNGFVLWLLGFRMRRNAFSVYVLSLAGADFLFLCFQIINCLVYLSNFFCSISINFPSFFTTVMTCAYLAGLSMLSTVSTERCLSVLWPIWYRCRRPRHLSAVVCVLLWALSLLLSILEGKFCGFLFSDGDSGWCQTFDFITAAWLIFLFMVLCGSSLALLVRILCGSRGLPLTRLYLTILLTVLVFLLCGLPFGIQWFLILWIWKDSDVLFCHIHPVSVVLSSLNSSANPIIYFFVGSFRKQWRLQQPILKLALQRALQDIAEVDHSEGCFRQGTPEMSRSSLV
# Assay: MRGPRX2 reporter cell assay (NFAT-RE luciferase, Substance P stimulation)
# Assay type: cell-based
# Conditions: U2OS cells stably transfected with MRGPRX2 and NFAT-RE luciferase reporter; Substance P at EC80
# Method: MRGPRX2 Reporter Cell Assays U2OS cells (ATCC, Manassas, VA) were stably transfected with MRGPRX2 expression clones (GeneCopoeia, Rockville, MD) and the pGL4.30 [luc2P/NFAT-RE/Hygro] reporter plasmid (Promega, Madison, WI). Clonal cells were maintained in Growth Media (McCoy's 5A, 10% FBS, 495 μg/ml hygromycin, 2 μg/ml puromycin, 100 units/ml penicillin, and 100 ug/ml streptomycin). The day before assay, cells were plated to white 384-well microplates at 3000 (MRGPRX2) cells/well in 10 ul Assay Media (McCoy's 5A, 2% charcoal dextran stripped FBS, 100 units/ml penicillin, and 100 ug/ml streptomycin) (Gibco, Thermo Fisher) and allowed to adhere overnight. The following day, serially diluted compound stocks were added directly to the cells (final DMSO concentration of 0.5%) and pre-incubated for 30 minutes at 37° C., 5% CO2. The final concentration of Substance P (Tocris, Minneapolis, MN, or PEPTIDE INSTITUTE, Osaka, Japan) corresponding to EC80 was added to stimulate the (MRGPRX2) cells. Cells were returned to the incubator for 6 hrs, after which 5 ul of ONE-GLO substrate (Promega) was added. Luminescence was read within 15 minutes (BioTek, Winooski, VT or infinite M1000Pro, Tecan Japan, Kanagawa, Japan). Percent inhibition for each test compound was calculated using the formula: […] where: • A=the luminescence count of the “test compound” well • B=the median luminescence count of the “Vehicle (0.5% DMSO)” wells • C═the median luminescence count of the “Vehicle (0.5% DMSO)+5 uM of substance P” wells The mean percent inhibition of each concentration of “test compound” was used to generate dose-response curves. IC50 values were calculated using a four-parameter logistic fit to the data using GraphPad Prism software. • +++: […]
row,pIC50,SMILES
1,8.24,CCc1nn2c(c1-c1[nH]c3ncccc3c1-c1cn(C)nc1OC(F)F)OCCC2 [EX. 422]
2,8.68,Cn1cc(-c2c(-c3c(C(F)F)nn4c3OC[C@@H](OCCO)C4)[nH]c3ncccc23)c(OC(F)F)n1 [EX. 534]

# Same assay, conditions: U2OS cells stably transfected with MRGPRX2 and NFAT-RE luciferase reporter; Substance P at EC80; class symbols
row,pIC50,SMILES
1,> 8.00,Cn1cc(-c2c(-c3c(C(F)(F)F)nn4c3OCCC4)[nH]c3ncccc23)c(OC(F)F)n1 [EX. 528]
2,> 8.00,CO[C@@H]1COc2c(-c3[nH]c4ncccc4c3-c3cn(C)nc3OC(F)F)c(C)nn2C1 [EX. 541]
3,> 8.00,CS(=O)(=O)N[C@@H]1COc2c(-c3[nH]c4ncccc4c3-c3ccncc3C#N)c(C(F)F)nn2C1 [EX. 523]
4,> 8.00,CS(=O)(=O)N[C@@H]1COc2c(-c3[nH]c4ncccc4c3-c3cccnc3C#N)c(C(F)F)nn2C1 [EX. 522]
5,7.00 to 8.00,"FC(F)Oc1nnc(Cl)cc1-c1c(-c2c(C(F)F)nn3c2OCCC3)[nH]c2ncccc12 [EX. 389, 3-(3-(6-chloro-3-(difluoromethoxy)pyridazin-4-yl)-1H-pyrrolo[2,3-b]pyridin-2-yl)-2-(difluoromethyl)-6,7-dihydro-5H-pyrazolo[5,1-b] [1,3]oxazine]"
6,> 8.00,Cn1cc(-c2c(-c3c(C(F)F)nn4c3OC[C@@H](NC(=O)[C@@H]3C[C@H]3F)C4)[nH]c3ncccc23)c(OC(F)F)n1 [EX. 551]
7,> 8.00,[2H]C([2H])([2H])Oc1ccc(C#N)c(-c2c(-c3c(C)nn4c3OCC(O)C4)[nH]c3ncccc23)c1 (centres unmarked) [EX. 199]
8,> 8.00,Cn1cc(-c2c(-c3c(C(F)F)nn4c3OC[C@@H](N)C4)[nH]c3ncccc23)c(OC(F)F)n1 [EX. 543]
9,7.00 to 8.00,FC(F)c1nn2c(c1-c1[nH]c3ncccc3c1-c1cnsc1C(F)F)OCCC2 [EX. 416]
10,> 8.00,CCc1nn2c(c1-c1[nH]c3ncccc3c1-c1cn(C)nc1OC(F)F)OCCC2 [EX. 422]
11,> 8.00,CO[C@@H]1COc2c(-c3[nH]c4ncccc4c3-c3cc(C)sc3C#N)c(C(F)F)nn2C1 [EX. 506]
12,> 8.00,COc1ccc(C#N)c(-c2c(-c3c(OC)nn4cccnc34)[nH]c3ncccc23)c1 [EX. 225]
13,> 8.00,COc1ccc(F)cc1-c1[nH]c2ncccc2c1-c1cc(C)ccc1C#N [EX. 326]
14,> 8.00,Cn1cc(-c2c(-c3c(C(F)F)nn4c3OC[C@@H](OCCO)C4)[nH]c3ncccc23)c(OC(F)F)n1 [EX. 534]
15,> 8.00,COc1ccc(C#N)c(-c2c(-c3c(C(F)F)nn4c3OC[C@@H](NC(C)=O)C4)[nH]c3ncccc23)c1 [EX. 364]
16,> 8.00,COc1ccc(C#N)c(-c2c(-c3c(C(F)F)nn4c3OCC(N)C4)[nH]c3ncccc23)c1 (centres unmarked) [EX. 357]
17,> 8.00,CS(=O)(=O)N[C@@H]1COc2c(-c3[nH]c4ncccc4c3-c3cccnc3OC(F)F)c(C(F)F)nn2C1 [EX. 521]
18,> 8.00,[2H]C([2H])([2H])Oc1ccc(C#N)c(-c2c(-c3c(CC)nn4c3OCCC4)[nH]c3ncccc23)c1 [EX. 200]
19,> 8.00,CCc1ccc(C#N)c(-c2c(-c3cn(C)nc3C(F)F)[nH]c3ncccc23)c1 [EX. 116]

row,pIC50,SMILES
1,> 8.00,Cc1cc(-c2c(-c3c(C)nn4c3OC[C@@H](O)C4)[nH]c3ncccc23)c(C#N)s1 [EX. 459]
2,> 8.00,Cc1cc(-c2c(-c3c(C(F)F)nn4c3OC[C@@H](F)C4)[nH]c3ncccc23)c(C#N)s1 [EX. 450]
3,> 8.00,Cn1cc(-c2c(-c3c(C(F)F)nn4c3OC[C@@H](F)C4)[nH]c3ncccc23)c(OC(F)F)n1 [EX. 434]
4,> 8.00,COc1ccc(C#N)c(-c2c(-c3c(C)nn4c3OCC(NC(C)=O)C4)[nH]c3ncccc23)c1 (centres unmarked) [EX. 356]
5,> 8.00,COc1ccc(C#N)c(-c2c(-c3c(C)nn4c3OCC(N)C4)[nH]c3ncccc23)c1 (centres unmarked) [EX. 359]
6,> 8.00,Cn1cc(-c2c(-c3c(C(F)F)nn4c3OC[C@@H](NC(=O)C3(F)CC3)C4)[nH]c3ncccc23)c(OC(F)F)n1 [EX. 588]
7,> 8.00,C[C@H](O)COC(=O)N[C@@H]1COc2c(-c3[nH]c4ncccc4c3-c3cn(C)nc3OC(F)F)c(C(F)F)nn2C1 [EX. 567]
8,> 8.00,COC(=O)N[C@@H]1COc2c(-c3[nH]c4ncccc4c3-c3cc(C)sc3C#N)c(C(F)F)nn2C1 [EX. 516]
9,> 8.00,Cc1nn2c(c1-c1[nH]c3ncccc3c1-c1cccnc1OC(F)F)OC[C@@H](OCCO)C2 [EX. 498]
10,> 8.00,CC(C)OC(=O)N[C@@H]1COc2c(-c3[nH]c4ncccc4c3-c3cn(C)nc3OC(F)F)c(C(F)F)nn2C1 [EX. 575]
11,> 8.00,[2H]C([2H])([2H])Oc1ccc(C#N)c(-c2c(-c3c(C)nn4c3OCC(O)C4)[nH]c3ncccc23)c1 (centres unmarked) [EX. 367]
12,> 8.00,FC(F)Oc1ncccc1-c1c(-c2c(C(F)F)nn3c2OC[C@@H](F)C3)[nH]c2ncccc12 [EX. 437]
13,> 8.00,COc1ccc(C#N)c(-c2c(-c3c(C)nn4c3OCC4)[nH]c3ncccc23)c1 [EX. 230]
14,> 8.00,Cc1cc(-c2c(-c3c(C)nn4c3OC[C@@H](OCCO)C4)[nH]c3ncccc23)c(C#N)s1 [EX. 504]
15,> 8.00,COc1ncccc1-c1c(-c2c(C(F)F)nn3c2OC[C@@H](F)C3)[nH]c2ncccc12 [EX. 446]
16,> 8.00,COc1ncc(F)cc1-c1c(-c2c(C(F)F)nn3c2OCCC3)[nH]c2ncccc12 [EX. 431]
17,> 8.00,N#Cc1ccccc1-c1c(-c2cc(F)ccc2O)[nH]c2ncccc12 [EX. 54]
18,> 8.00,C[C@H](O)CC(=O)N[C@@H]1COc2c(-c3[nH]c4ncccc4c3-c3cn(C)nc3OC(F)F)c(C(F)F)nn2C1 [EX. 556]
19,> 8.00,COc1ccc(C#N)c(-c2c(-c3c(C)nn4cc(O)cnc34)[nH]c3ncccc23)c1 [EX. 181]

row,pIC50,SMILES
1,> 8.00,N#Cc1ncccc1-c1c(-c2c(C(F)F)nn3c2OC[C@@H](NC(=O)C2CC2)C3)[nH]c2ncccc12 [EX. 591]
2,> 8.00,Cc1cc(-c2c(-c3c(C(F)F)nn4c3OC[C@@H](O)C4)[nH]c3ncccc23)c(C#N)s1 [EX. 458]
3,> 8.00,Cn1cc(-c2c(-c3c(C(F)F)nn4c3OC[C@@H](NC(=O)[C@H]3C[C@@H](O)C3)C4)[nH]c3ncccc23)c(OC(F)F)n1 [EX. 564]
4,> 8.00,COC(=O)N[C@@H]1COc2c(-c3[nH]c4ncccc4c3-c3cccnc3C#N)c(C(F)F)nn2C1 [EX. 514]
5,> 8.00,"CO[C@]1(C)COc2c(-c3[nH]c4ncccc4c3-c3cc(C)sc3C#N)c(C(F)F)nn2C1 [EX. 486, (S)-3-(2-(2-(difluoromethyl)-6-methoxy-6-methyl-6,7-dihydro-5H-pyrazolo[5,1-b] [1,3]oxazin-3-yl)-1H-pyrrolo[2,3-b]pyridin-3-yl)-5-methylthiophene-2-carbonitrile]"
6,> 8.00,Cn1cc(-c2c(-c3c(C(F)F)nn4c3OC[C@@H](NC(=O)C(C)(C)O)C4)[nH]c3ncccc23)c(OC(F)F)n1 [EX. 587]
7,7.00 to 8.00,N#Cc1ncccc1-c1c(-c2c(C(F)F)nn3c2OCCC3)[nH]c2ncccc12 [EX. 411]
8,> 8.00,CC(C)(O)CO[C@@H]1COc2c(-c3[nH]c4ncccc4c3-c3cccnc3C#N)c(C(F)F)nn2C1 [EX. 509]
9,> 8.00,COc1ccc(C#N)c(-c2c(-c3c(C(F)F)nn4c3OCC3(CC3)C4)[nH]c3ncccc23)c1 [EX. 183]
10,> 8.00,N#Cc1ccccc1-c1c(-c2ccccc2O)[nH]c2ncccc12 [EX. 122]
11,> 8.00,[2H]C([2H])([2H])Oc1ccc(C#N)c(-c2c(-c3c(C)nn4cc(C)cnc34)[nH]c3ncccc23)c1 [EX. 266]
12,> 8.00,[2H]c1cnc2[nH]c(-c3cn(C)nc3C(F)F)c(-c3cc(OC([2H])([2H])[2H])ccc3C#N)c2c1 [EX. 89]
13,> 8.00,COc1ccc(C#N)c(-c2c(-c3c(C)nn4cccnc34)[nH]c3ncccc23)c1 [EX. 245]
14,> 8.00,Cn1cc(-c2c(-c3c(C4CC4)nn4c3OC[C@@H](O)C4)[nH]c3ncccc23)c(OC(F)F)n1 [EX. 485]
15,7.00 to 8.00,"CCn1cc(-c2c(-c3c(C(F)F)nn4c3OCCC4)[nH]c3ncccc23)c(OC(F)F)n1 [EX. 400, 3-[3-[3-(difluoromethoxy)-1-ethyl-pyrazol-4-yl]-1H-pyrrolo[2,3-b]pyridin-2-yl]-2-(difluoromethyl)-6,7-dihydro-5H-pyrazolo[5,1-b] [1,3]oxazine]"
16,> 8.00,COc1ccc(F)cc1-c1[nH]c2nccc(F)c2c1-c1ccccc1C#N [EX. 27]
17,> 8.00,N#Cc1ccccc1-c1c(-c2ccccc2OCc2ccccc2)[nH]c2ncccc12 [EX. 109]
18,> 8.00,[2H]C([2H])([2H])Oc1ccc(C#N)c(-c2c(-c3c(OC)nn4cccnc34)[nH]c3ncccc23)c1 [EX. 175]
19,> 8.00,O[C@@H]1COc2c(-c3[nH]c4ncccc4c3-c3ccsc3Cl)c(C(F)F)nn2C1 [EX. 453]
